Where “and” joins values, the source holds several entries; their conditions need not be identical. Equal values may be shown once.
How the values were obtained:
Format in all cases: cell-based
[1] = tested on: HEK293 cells; test: XTT cell viability assay; conditions: in % (unit assumed)
Experimental: (§1) To establish direct target engagement and cell membrane permeability, a cellular thermal shift assay (CETSA) was carried out, using leading QR2is YB’s-537, 800, and 808. Following a 1 hour preincubation with 5 μM of the QR2is or vehicle, thermal aggregation curves (Taggs) of QR2 expressed in HEK293T were measured in increasing temperatures. All QR2is increased QR2 thermal stability compared with vehicle (Supplemental Figure 2A). Based on the Tagg curves we selected 73°C for isothermal dose-response fingerprint (IDTRF) experiments (Supplemental Figure 2B). The ITDRF allowed the relative quantification of the binding of each of the QR2is to QR2, measured as the EC50 (Figure 3A). […] We evaluated the safety of the QR2is using cell toxicity and viability assays. […] Cell viability was assessed by XTT assay in HEK239T cells, using a dose response, with 3- or 24-hour incubations of the leading QR2is. No sign of toxicity was seen (Figure 3C). Next, we wanted to assess if, similar to QR2 KO, QR2is can reduce cellular ROS in HCT116 cells and see whether any observable effect is occluded in QR2Δ cells. […] We then assessed WT HCT116 cells by immunoblot (Supplemental Figure 2, C and D), after being treated with YB-800 (2 μM) for 4 consecutive days.
(§2) H2DCFDA ROS assay was carried out according to established protocols, with some adjustment (Supplemental Methods) ([6]). Cell toxicity was measured via ATP depletion (CellTiter Glo, Promega) in THLE-2 cells (ATCC, CRL-2706), following 72 hours of exposure to the test compounds, and cell viability was assessed using XTT assay (Biological Industries) according to manufacturers protocols. CETSA was performed as previously described ([53]) with some modifications, using QR2 (Santa Cruz, sc-271665) and SOD1 (Santa Cruz, sc-17767) antibodies. SDS-PAGE and immunoblot imaging were carried out as previously described ([55]), using Tubulin (Sigma-Aldrich, SAB4500087), QR2 (Santa Cruz, sc-271665), NDUFA9 (AbCam, ab14713) and CD73 (Cell Signaling Technology, D7F9A) antibodies. […]
(§3) HEK293FT cells were cultured with penicillin- streptomycin antibiotics in Invitrogen DMEM (Thermo
(§4) Fisher Scientific) with 10% fetal bovine serum a nd L -glutamine, and grown to 80-90% confluence in 100
mm plates, while being passaged every 2–3 d. For the XTT assay (Biological Industries), cells were then
collected, centrifuged, and resuspended in fresh Minimum Essential Medium, and seeded at 50,000
cells/well in 96-well, poly- L-lysine-coated Nunc black, clear flat-bottomed plates (Thermo Fisher
Scientific). The next day, the cells were treated with increasing doses of QR2 inhibitors or vehicle f or 3 h,
and the XTT assay was then carried out as per the manufacturer’s instructions.
(§5) Cellular The rm a l Shift Assay (CETSA) […]
(§6) 17767). Analysis of the results wer e done in accordance to Jafari et a l .( 63) us i ng GraphPad Pr i sm software.

[2] = target: T1, QR2 expressed in HEK293T (Homo sapiens, UniProt P16083); test: Cellular thermal shift assay (CETSA; Tagg curves and ITDRF); conditions: 73°C; for EC50: n = 3, read-out: EC50, isothermal dose-response of QR2 stabilization; for QR2 stabilization signal, ITDRF (replicates): log[Inhibitor]
T1 construct: endogenous in cells; host or cells: HEK293T
T1 sequence (P16083 1-231): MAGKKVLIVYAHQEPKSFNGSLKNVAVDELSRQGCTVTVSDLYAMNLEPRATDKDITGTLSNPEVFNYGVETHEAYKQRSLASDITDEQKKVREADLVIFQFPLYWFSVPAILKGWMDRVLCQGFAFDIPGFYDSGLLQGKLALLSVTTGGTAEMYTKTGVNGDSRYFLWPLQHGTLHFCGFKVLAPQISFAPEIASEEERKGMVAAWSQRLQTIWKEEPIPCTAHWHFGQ
Experimental: as §1, §2, §3, §4
mm plates, while being passaged every 2–3 d. […]
Cellular The rm a l Shift Assay (CETSA)
The CETSA assay was performed as described(54) with some modifications. Bri efl y, HEK293T cel ls wer e
trypsinized (Biological Indust ri es), washed in PBS (Sigma-Aldrich) and then suspended in PBS containing
protease inhibitor cocktail (Roche). The suspended cells were then divided into two Eppendorf tubes and
were treated with either compound or DMSO (Sigma-Aldrich) for 1h at 37 °C with shaking. Following
treatment, each sample was divided into PCR tubes (100µL/tube) and subjected to a temperature gradient
(ranging fr om 63 to 80 °C) for 3 minutes. Cell lysates we r e obtained by 3- cycles of freeze- t ha w using li qui d
nitrogen and a thermal bl ock set to 25 °C. Samples were then centrifuged at 15,000rpm at 4 °C f or 20min a nd
were subsequently analyzed by Western Blot of QR2 (1:100, Santa Cruz; sc-271665). The isothermal
concentration response fingerprint (ITDRF) experiments were done using a constant temperature of 73 °C.
Band intensities were normalized to the highest concentration and SOD1 levels (1:200, Santa Cruz; sc -
as §6

[3] = tested on: THLE-2 cells; test: ATP depletion cell toxicity assay (CellTiter Glo), 72 h; conditions: for cell viability, Cell-Titer-Glo (replicates): THLE2, 72 hour, in % (unit assumed); for LD50, cell viability (Cell-Titer-Glo): THLE2 cells, 72 hour incubation
Experimental: H2DCFDA ROS assay was carried out according to established protocols, with some adjustment (Supplemental Methods) ([6]). Cell toxicity was measured via ATP depletion (CellTiter Glo, Promega) in THLE-2 cells (ATCC, CRL-2706), following 72 hours of exposure to the test compounds, and cell viability was assessed using XTT assay (Biological Industries) according to manufacturers protocols. CETSA was performed as previously described ([53]) with some modifications, using QR2 (Santa Cruz, sc-271665) and SOD1 (Santa Cruz, sc-17767) antibodies. SDS-PAGE and immunoblot imaging were carried out as previously described ([55]), using Tubulin (Sigma-Aldrich, SAB4500087), QR2 (Santa Cruz, sc-271665), NDUFA9 (AbCam, ab14713) and CD73 (Cell Signaling Technology, D7F9A) antibodies.
with a 100 µM as upper limit, for 72 h. […]
as §5, §6

Row | SMILES | cell viability, XTT (replicates) ([1]; 3h, inhibitor 2e-8 M) | cell viability, XTT (replicates) ([1]; 3h, inhibitor 2e-7 M) | cell viability, XTT (replicates) ([1]; 3h, inhibitor 2e-6 M) | cell viability, XTT (replicates) ([1]; 3h, inhibitor 2e-5 M) | cell viability, XTT (replicates) ([1]; 24h, inhibitor 2e-8 M) | cell viability, XTT (replicates) ([1]; 24h, inhibitor 2e-7 M) | cell viability, XTT (replicates) ([1]; 24h, inhibitor 2e-6 M) | cell viability, XTT (replicates) ([1]; 24h, inhibitor 2e-5 M) | EC50 [2] [nM] | QR2 stabilization signal, ITDRF (replicates) ([2]; M -5) | QR2 stabilization signal, ITDRF (replicates) ([2]; M -5.6) | QR2 stabilization signal, ITDRF (replicates) ([2]; M -5.9) | QR2 stabilization signal, ITDRF (replicates) ([2]; M -6.2) | QR2 stabilization signal, ITDRF (replicates) ([2]; M -6.5) | QR2 stabilization signal, ITDRF (replicates) ([2]; M -6.8) | QR2 stabilization signal, ITDRF (replicates) ([2]; M -7.1) | QR2 stabilization signal, ITDRF (replicates) ([2]; M -7.4) | QR2 stabilization signal, ITDRF (replicates) ([2]; M -7.7) | QR2 stabilization signal, ITDRF (replicates) ([2]; M -8) | QR2 stabilization signal, ITDRF (replicates) ([2]; M -9) | further results
1 | Cc1ccc(-c2cn3cccc(C)c3n2)cc1S(=O)(=O)N1CCNCC1 [YB-537] | 94.7 and 105.7 and 95.0 and 97.1 | 97.9 and 102.5 and 95.0 and 99.0 | 99.1 and 104.8 and 106.5 and 98.8 | 94.7 and 101.0 and 104.9 and 96.7 | 105.3 and 102.1 and 104.1 | 107.4 and 101.8 and 105.2 | 109.0 and 101.0 and 104.0 | 106.0 and 97.3 and 109.2 | 129 | 8037 and 7667 | 10469 and 7617 and 6857 | 10266 and 7463 and 6486 | 8878 and 6878 and 4582 | 6804 and 5633 | 3383 and 3296 and 2262 | 1653 and 1901 and 1028 | 762 and 749 and 458 | 410 and 416 | 212 and 226 and 182 | 110 and 98 and 105 | cell viability, Cell-Titer-Glo (replicates) ([3]; inhibitor 3.9e-7 M): 89.3 and 104.9 and 105.3; cell viability, Cell-Titer-Glo (replicates) ([3]; inhibitor 7.8e-7 M): 93.6 and 99.6 and 103.9; cell viability, Cell-Titer-Glo (replicates) ([3]; inhibitor 1.5625e-6 M): 96.4 and 109.9 and 90.1; cell viability, Cell-Titer-Glo (replicates) ([3]; inhibitor 3.125e-6 M): 92.2 and 96.1 and 103.0; cell viability, Cell-Titer-Glo (replicates) ([3]; inhibitor 6.25e-6 M): 89.6 and 101.5 and 85.3; cell viability, Cell-Titer-Glo (replicates) ([3]; inhibitor 1.25e-5 M): 95.7 and 97.8 and 93.2; cell viability, Cell-Titer-Glo (replicates) ([3]; inhibitor 2.5e-5 M): 93.9 and 92.0 and 88.2; cell viability, Cell-Titer-Glo (replicates) ([3]; inhibitor 5e-5 M): 91.4 and 92.2; cell viability, Cell-Titer-Glo (replicates) ([3]; inhibitor 0.0001 M): 81.5 and 82.7 and 80.4; LD50, cell viability (Cell-Titer-Glo) [3]: > 100 µM
2 | Cc1ccc(-c2cn3cccc(C)c3n2)cc1S(=O)(=O)N1CCC(C)CC1 [YB-800] | 110.8 and 103.7 and 108.0 and 102.4 | 102.8 and 101.2 and 105.3 and 105.6 | 102.2 and 105.1 and 102.6 and 106.5 | 89.7 and 90.4 and 98.2 and 92.7 | 107.0 and 100.8 and 108.4 | 107.9 and 100.0 and 108.0 | 108.3 and 101.8 and 109.9 | 104.0 and 96.6 and 104.9 | 34 | 4070 and 3736 | 4506 and 4561 and 4867 | 4786 and 3969 and 5175 | 5056 and 3732 and 5224 | 4815 and 4201 and 4200 | 4651 and 3683 and 3564 | 3508 and 2203 and 2700 | 2230 and 1871 and 2017 | 1054 and 942 and 1103 | 655 and 480 and 469 | 36 and 24 and 14 | cell viability, Cell-Titer-Glo (replicates) ([3]; inhibitor 3.9e-7 M): 96.3 and 111.4; cell viability, Cell-Titer-Glo (replicates) ([3]; inhibitor 7.8e-7 M): 111.0 and 92.8; cell viability, Cell-Titer-Glo (replicates) ([3]; inhibitor 1.5625e-6 M): 96.0; cell viability, Cell-Titer-Glo (replicates) ([3]; inhibitor 3.125e-6 M): 102.0 and 98.8; cell viability, Cell-Titer-Glo (replicates) ([3]; inhibitor 6.25e-6 M): 95.3 and 97.2; cell viability, Cell-Titer-Glo (replicates) ([3]; inhibitor 1.25e-5 M): 87.5 and 81.6; cell viability, Cell-Titer-Glo (replicates) ([3]; inhibitor 2.5e-5 M): 74.8 and 70.3; cell viability, Cell-Titer-Glo (replicates) ([3]; inhibitor 5e-5 M): 54.4 and 53.1; cell viability, Cell-Titer-Glo (replicates) ([3]; inhibitor 0.0001 M): 50.5 and 51.2; LD50, cell viability (Cell-Titer-Glo) [3]: 78.401 µM

Reference: article PMC10541198, “Specific quinone reductase 2 inhibitors reduce metabolic burden and reverse Alzheimer’s disease phenotype in mice” (The Journal of Clinical Investigation, 2023)
